Values quoted from earlier work as cited in US20040002663A1, “Method and system for use in detecting a cancerous and precancerous pathology” (priority 2002, published 2004).
Where two headings read alike, the source gives them in different places.

Tests used:
[1] = test system: patients with orthostatic hypotension
[2] = test system: patients with orthostatic hypotension; settings: for increase in one-minute standing systolic blood pressure: 10 mg at 0, 3, 6 hours
[3] = test system: patients with orthostatic hypotension; settings: for increase in standing one-minute systolic pressure: at one hour
[4] = test system: patients with orthostatic hypotension of various etiologies
[5] = test system: alpha-adrenergic receptors of the arteriolar and venous vasculature; settings: active metabolite of midodrine
[6] = test system: cardiac beta-adrenergic receptors
[7] = 10 mg t.i.d., printed as a pair (systolic/diastolic)

SMILES | higher one-minute standing systolic pressure ([1]; 10 mg t.i.d., one hour after dosing, 170 patients, vs placebo) | sitting blood pressure rise [1, 7] | supine blood pressure rise [1, 7] | dizziness/light headedness/unsteadiness scores and global evaluations ([1]; after week one) | increase in one-minute standing systolic blood pressure ([2]; one hour after each dose) | increase in one-minute standing systolic blood pressure ([2]; three hours after each dose) | three-minute standing pressures ([2]; 10 mg, one and 3 hours after dosing) | standing time ([2]; 10 mg, one and three hours after dosing) | time the increase in standing systolic pressure was sustained in part ([3]; after 10 mg) | time the increase in standing systolic pressure was sustained in part ([3]; after 20 mg) | increase in standing one-minute systolic pressure ([3]; single 10 mg dose) | increase in standing one-minute systolic pressure ([3]; single 20 mg dose) | standing, sitting, and supine systolic and diastolic blood pressure [4] | action at alpha-adrenergic receptors [5] | stimulation of cardiac beta-adrenergic receptors [6]
COc1ccc(OC)c(C(O)CNC(=O)CN)c1.Cl (racemic) [midodrine, (±)−2-amino-N-(β-hydroxy-2,5-dimethoxyphenethyl)acetamide monohydrochloride] | about 20 mmHg | 20/10 | 16/8 | small improvements | about 15 mmHg | about 12 mmHg | increased also at one, but not 3, hours after dosing | increases in standing time seen intermittently one hour after dosing, but not at three hours | two | four | about 30 mmHg | about 30 mmHg | rise |  | 
COc1ccc(OC)c(C(O)CN)c1 (stereo not drawn) [Desglymidodrine] |  |  |  |  |  |  |  |  |  |  |  |  |  | alph1-agonist | does not stimulate
